Laboratory results published in patent US20060122153A1, “Antineoplastic ether lipid compounds with modifications at the sn-2 carbon” (priority 2003, published 2006).
Where “and” joins values, the source holds several entries; their conditions need not be identical. Equal values may be shown once. Entries after “also recorded” stand apart in the source; their conditions may differ. Read-outs that look alike come from different tables or passages of the source.

Assays:
WI38 = WI38 normal human fibroblast cell line, 3 days
Excerpt: (§1) The following cell lines were selected from the cell bank for screening and GI50 studies: MCF-7: human breast tumor, MCF-7/ADR: MCF-7 adriamycin resistant subline, HT-29: human colon carcinoma, A-549: human non-small cell lung cancer, NIH-3T3: mouse Swiss embryo fibroblast and WI-38: human lung fibroblast, SKMEL-28: human melanoma, Lewis Lung: mouse lung carcinoma, DU-145: prostate carcinoma, B16F10: mouse melanoma, L1210: murine lymphocytic leukemia, P-388: murine leukemia, U-937: human histolytic lymphoma. Except HT-29, WI-38, NIH-3T3 and Lewis Lung which were obtained from the American Type Culture Collection (Rockville, Md.) all the other cell lines were obtained from National Cancer Institute—Frederick Research Facility (Frederick, Md.). All the cell lines were grown in RPMI-1640 medium containing 10% fetal bovine serum (FBS) except WI-38 and DU-145 which were grown in EMEM+10% FBS at 37° C., 5% CO2 and 100% humidity and NIH-3T3, Lewis Lung, B16F10 and L1210 which were grown in DMEM containing 10% FBS (10% HS for L1210). All the adherent cell lines were detached from the culture flasks by addition of 2-3 ml of 0.05% trypsin-EDTA. Thereafter, trypsin was inactivated by addition of 10 mL of 10% serum-containing RPMI-1640 medium. Cells were separated into a single-cell suspension by gentle pipetting action. Depending on the cell type, 3,6000 to 10,000 cells were plated onto 96-well plates a day prior to the drug treatment, in a volume of 100 μl per well.
(§2) The test compounds were made in-house and the compounds were dissolved PBS or saline at a stock concentration of approximately 20 mM, which is 400 times the desired final maximum test concentration. The stock solutions were then diluted with complete medium to twice the desired final concentration. 100 μl aliquots of each dilution was then added to the designated wells. After 3 days of incubation, cell growth was determined.
(§3) The SRB assay was performed as described by Monks, A., Scudiero, D., Skehan, P., Shoemaker, R., Paull, K., Vistica, D., Hose, C., Langley, J., Cronise, P., and Vaigro-Wolff, A. Feasibility of a high-flux anticancer drug screen using a diverse panel of cultured human tumo-r cell lines. J Natl Cancer Inst, 83: 757-766, 1991 with minor modifications. Following drug treatment, cells were fixed with 50 μl of cold 50% (wt/vol) trichloroacetic acid (TCA) for 60 minutes at 4° C. The supernatant was discarded, and the plates were washed six times with deionized water and then air dried. The precipitate was stained with 100 μl SRB solution (0.4% wt/vol in 1% acetic acid) for 10 minutes at room temperature, and free SRB was removed by washing three times with 1% acetic acid, and the plates were then air dried. Bound SRB was solubilized with Tris buffer (10 mM), and the ODs were read using an automated plate reader (Bio-Rad, Model 3550-UV) at 490 nm. Background values were subtracted from the test data, and the data was calculated as a % of control. […] Percentage growth was calculated as described by, Peters, A. C., Ahmad, I., Janoff, A. S., Pushkareva, M. Y., and Mayhew, E. Growth Inhibitory effects of liposome-associated 1-o-octadecyl-2-o-methyl-sn-glycero-3-phosphocholine. Lipids, 32:1045-1054, 1997. The raw optical density data Was imported into an Excel spreadsheet to determine dose responses. […] By varying drug concentration,-dose response curves were generated and the GI-50 values were calculated. The GI50 values for each experiment were calculated using data obtained from three duplicate wells on two separate plates.
(§4) For growth inhibitory evaluation, we used five human tumor cell lines (U937; HT29; A549; MCF7; MCF7/ADR) and two normal fibroblast cell lines (NIH-3T3, murine; WI-38, human).

whole human blood = experiment: Hemolysis assay with whole human blood
Procedure: Venous blood was collected in 10 mL Vacutainer tubes containing EDTA using a 21G needle or larger.
Stock solutions of 20 mM test sample in phosphate buffered saline (PBS) were prepared as follows:
Then 270 uL of whole blood was aliquotted in duplicate mini test tubes using positive displacement pipet. Next, 30 uL of each working stock solution, in duplicate, was added to the whole blood. Next, 30 uL of PBS was added for background control. The samples were capped or sealed with Parafilm and gently mixed. The blood was incubated at 37° C. in gentle rotating water bath for 30 minutes. Final concentration of test sample was 10% of working stock solution.
Total hemolysis samples of 1,% and 10% whole blood samples in deionized water were prepared as follows:
The samples were freeze thawed 3× in liquid nitrogen then wafer bath. The samples were then centrifuged 10 minutes at 1500 RPM. Next, 100 uL of supernatant was transferred to a cuvette and 1 mL deionized water was added. The absorbance was read at 550 nm vs. water blank.
H10 and H50 were calculated by graphing Percent Total Hemolysis vs. Test Sample Concentration. The Percent Total Henolysis=(average o.d of test sample)/(average o.d. of total hemolysis sample)×100

[1] = test system: platelets in dog whole blood
Procedure: (§5) Briefly, whole citrated blood is diluted 1:2 with sterile saline and placed in a warm chamber with a mini stir bar. An electronic probe, measuring electrical resistance, is inserted in the sample. The aggregometer is calibrated and the baseline is observed to detect any spontaneous aggregation. The test sample is added and allowed to run for at least 6 minutes. If the sample is an agonist the platelets will start to aggregate and stick to the electronic probe causing resistance across the electrodes to increase. This resistance, in ohms, is measured 6 minutes post addition of sample. The test samples are run at 25, 100, 200, 400 and 800 uM and compared to 100 uM L-ET-18-OCH3.
(§6) Collection of Blood Sample for in vitro Platelet Aggregation Testing: Venous blood is collected in 4.5 mL Vacutainer tubes containing 0.129 M sodium citrate using a 21G needle or larger. Blood is immediately mixed by gentle inversion 15-20 times and kept at room temperature. Dilution ratio is 1 to 9 (3.8% citrate solution:blood). One (2.0 mL) Vacutainer tube containing EDTA is also collected for platelet counts. Complete blood counts (CBC) are measured on the CDC Technologies Hemavet 1500 to ensure that the test subject's platelets are within normal range. Amy vials of hemolytic blood or blood containing any clots should be discarded. Platelet aggregation testing must be completed within 3 hours of blood collection. After this time the ability of platelets to aggregate decreases.
(§7) Dilutions were prepared in PBS or saline at 40× concentration. (25 uL test sample are added to 1000 uL diluted blood (1:40)).

A549 = experiment: In vitro growth inhibition (GI50), SRB assay; assay type: cell-based, human; conditions: A549 tumor cell line, 3 days
Excerpt: as §1, §2, §3, §4

MCF7 = experiment: In vitro growth inhibition (GI50), SRB assay; assay type: cell-based, human; conditions: MCF7 tumor cell line, 3 days
Excerpt: as §1, §2, §3, §4

HT29 = experiment: In vitro growth inhibition (GI50), SRB assay; assay type: cell-based, human; conditions: HT29 tumor cell line, 3 days
Excerpt: as §1, §2, §3, §4

MCF7/ADR = experiment: In vitro growth inhibition (GI50), SRB assay; assay type: cell-based, human; conditions: MCF7/ADR tumor cell line, 3 days
Excerpt: as §1, §2, §3, §4

[2] = test system: DEVDase activity (Caspase 3) in Jurkat T cells; experiment: DEVDase activity in Jurkat T cells; assay type: cell-based; conditions: Jurkat T cells, 6 hours
Procedure: Suspension cells were seeded at density 3.2×10^5 cells per mL in RPMI-1640 medium (Bio-Whittaker) supplemented with 10% heat inactivated FBS (Bio-Whittaker). Cells were pre-incubated overnight prior to treatment with the ether lipid compounds of the invention. At treatment time cell density was 5×10^5 cells per mL. Cells were incubated with the ether lipid compounds of the invention for various periods of time, usually 6 hours. Cells were collected, washed with 1×DPBS and resuspended in 110 μl of Buffer A (10 mM BEPES-KOH, pH 7.4, 2 mM EDTA, 0.1% CHAPS, 5 mM DTT, 1:100 dilution of protease inhibitors cocktail (Sigma)-DTT and protease inhibitors should be added just before use). After 10 min incubation on ice in order to lyse cells, samples were frozen on dry ice/ethanol and kept at −20° C. until analysis.
At the time of analysis of DEVDase activity frozen pellets were kept on ice until thawed and after vigorous vortexing samples were centrifuged at 14,000 rpm for 6 min.; Supernatant was transferred into another tube and 2 μl, in triplicates, were used for protein measurement using Bradford reagent (Bio-Rad).
Measurement of DEVDase activity was carried out in 100 μl volume, where 10 μg of protein was delivered in 50 μl of Buffer A and 40 μM of substrate Ac-DEVD-AMC was also delivered in 50 μl of Buffer A. All measurements were done in triplicates. Reaction was carried out for 1 hour and generation of fluorescent product of reaction (aminomethylcoumarin) was measured by reading fluorescence at 1em 460 nm (1ex 360 nm). Changes in DEVDase activity were calculated after subtraction of background fluorescence of substrate incubated without proteins, and were expressed as percent of control (DEVDase activity in untreated cells). Average of DEVDase activity, calculated from few independent experiments, was used to calculate percent of L-ether lipid-induced DEVDase activity.

U937 = experiment: In vitro growth inhibition (GI50), cell growth assay; assay type: cell-based, human; conditions: U937 tumor cell line, 3 days
Procedure: After 3 days of incubation, cell growth was determined.
To determine the Growth Inhibition in the suspension cell lines, cell numbers were directly counted instead of using the SRB assay which determines the total cell protein. One day prior to the drug treatment, 40,000 cells per well were seeded into 24-well plates in a volume of 0.5 mL. Stock solutions were diluted with complete medium to twice the desired final concentrations, and then 0.5 mL aliquots of each dilution were added to the designated wells. After 3 days incubation, cell growth was determined by counting cell number using a coulter counter (Z-M, coulter). Cell counts were-also taken at time 0 and subtracted from the test results to give net growth.

NIH-3T3 = experiment: In vitro growth inhibition (GI50), SRB assay, normal fibroblast; assay type: cell-based, mouse; conditions: NIH-3T3 normal murine fibroblast cell line, 3 days
Excerpt: as §1, with “All the adherent cell lines were detached from the culture flasks by addition of 2-3 ml of 0.05% trypsin-EDTA. Thereafter, trypsin was inactivated by addition of 10 mL of 10% serum-containing RPMI-1640 medium. Cells were separated into a single-cell suspension by gentle pipetting action. Depending on the cell type, 3,6000 to 10,000 cells were plated onto 96-well plates a day prior to the drug treatment, in a volume of 100 μl per well.” left out
The test compounds were made in-house and the compounds were dissolved PBS or saline at a stock concentration of approximately 20 mM, which is 400 times the desired final maximum test concentration. […] After 3 days of incubation, cell growth was determined.
The SRB assay was performed as described by Monks, A., Scudiero, D., Skehan, P., Shoemaker, R., Paull, K., Vistica, D., Hose, C., Langley, J., Cronise, P., and Vaigro-Wolff, A. Feasibility of a high-flux anticancer drug screen using a diverse panel of cultured human tumo-r cell lines. […] Bound SRB was solubilized with Tris buffer (10 mM), and the ODs were read using an automated plate reader (Bio-Rad, Model 3550-UV) at 490 nm. Background values were subtracted from the test data, and the data was calculated as a % of control. […] Percentage growth was calculated as described by, Peters, A. C., Ahmad, I., Janoff, A. S., Pushkareva, M. Y., and Mayhew, E. Growth Inhibitory effects of liposome-associated 1-o-octadecyl-2-o-methyl-sn-glycero-3-phosphocholine. […]

[3] = test system: platelets in dog whole blood; experiment: Platelet aggregation in whole blood (Chronolog whole blood aggregometer)
Procedure: as §5, §6, §7

Q: `CCCCCCCCCCCCCCCCCCOCC(COP(=O)([O-])OCC[N+](C)(C)C)OC` [L-ET18OCH3, 1-O-octadecyl-2-O-methyl-glycerophosphocholine, reference compound] was tested. Which GI50 (WI38) did it give?
A: 10 to 12.8 µM

Q: And the H50 (whole human blood)?
A: 2000, >2000 μM

Q: What about the Platelet aggregation [1] of the same compound?
A: +++

Q: What about the “platelet aggregation response (in words)” value [1] of the same compound?
A: elicits a platelet-aggregation response

Q: And the GI50 (A549)?
A: 6.5 to 9.1 µM

Q: And the GI50 (MCF7)?
A: 9.7 to 18.6 µM

Q: What about the GI50 (HT29) of the same compound?
A: 5.5 µM and 6 µM

Q: And the GI50 (MCF7/ADR)?
A: ≥ 25.7 µM

Q: What about the “% L-ET18OCH3 (DEVDase, 6 hrs)” value ([2]; 10 μM ether lipid) of the same compound?
A: 100 ± 8.8%

Q: What about the “% L-ET18OCH3 (DEVDase, 6 hrs)” value ([2]; 20 μM ether lipid) of the same compound?
A: 100 ± 10.4%

Q: What about the “% L-ET18OCH3 (DEVDase, 6 hrs)” value ([2]; 30 μM ether lipid) of the same compound?
A: 100 ± 9.3%

Q: What about the GI50 (U937) of the same compound?
A: 1 to 1.5 µM

Q: And the GI50 (NIH-3T3)?
A: 46.6 µM

Q: How did the “platelet aggregation response (in words)” value [3] turn out when `CCCCCCCCCCCCCCCCCCOC[C@@H](N)COP(=O)([O-])OCC[N+](C)(C)C` [9(R)] was run?
A: clear platelet aggregation response; also recorded: elicited a platelet aggregation response

Q: What about the “Relative Platelet Aggregation (Ohms)” value ([3]; 25 μM) of the same compound?
A: 8 Ohms

Q: And the “Relative Platelet Aggregation (Ohms)” value ([3]; 100 μM)?
A: 16 Ohms

Q: What about the “Relative Platelet Aggregation (Ohms)” value ([3]; 400 μM) of the same compound?
A: 10 Ohms

Q: And the “Relative Platelet Aggregation (Ohms)” value ([3]; 800 μM)?
A: 0 Ohms
